According to PMC9870775, “Potent Dual Polymerase/Exonuclease Inhibitory Activities of Antioxidant Aminothiadiazoles Against the COVID-19 Omicron Virus: A Promising In Silico/In Vitro Repositioning Research Study” (Molecular Biotechnology, 2023):

Assay: in vitro
Settings: African green monkey

Row | SMILES | CC50
1 | Nc1nnc(CC(O)(Cc2nnc(N)s2)c2nnc(N)s2)s1 [CoViTris2022, 1,2,3-tris(5-amino-1,3,4-thiadiazol-2-yl)propan-2-ol] | > 100 µM
2 | Nc1nnc(-c2cnc3cc(Cl)ccc3c2O)s1 [ChloViD2022, 3-(5-amino-1,3,4-thiadiazol-2-yl)-7-chloroquinolin-4-ol] | > 100 µM
3 | Nc1nnc([C@H](O)[C@@H](O)c2nnc(N)s2)s1 [Taroxaz-26, (1R,2R)-1,2-bis(5-amino-1,3,4-thiadiazol-2-yl)ethane-1,2-diol] | > 100 µM
4 | CC(C)C(=O)OC[C@H]1O[C@@H](n2ccc(NO)nc2=O)[C@H](O)[C@@H]1O [Molnupiravir, molnupiravir, reference compound] | > 100 µM
